These results are taken from patent US12589090B2, “Compounds and methods for the treatment of degenerative disorders” (Aquilus Pharmaceuticals, Inc., priority 2019, dated 2026).

One data set in a line: Dissociation constant. The class given is physicochemical.
A short description of data set [1]: Solubility testing (Example 27). The class given is physicochemical. The following applies: for solubility in water: as the free acid.
The subject of data set [2] is STZ-induced diabetic rats. Put plainly: STZ-induced diabetic rat model, tactile allodynia (Example 18). The class given is in vivo, Wistar rats. The protocol: (§1) Male Wistar rats (300-350 g) at the beginning of the experiment were used. A single dose (65 mg/kg, i.p.) of Streptozotocin (STZ) with 230 mg/kg (i.p) of nicotinamide were used for induction of diabetes in rats. The STZ was freshly dissolved in citrate buffer. Age matched control rats received the equal volume of the citrate buffer only. Forty days after injection of either STZ or citrate buffer, the rats were tested for diabetes mellitus (DM) using a drop of blood from the tail vein. The estimation of blood glucose level was made using OneTouch Select® Glucometer (LifeScan, Inc., USA). Rats with plasma glucose level>8 mmol/1 (145 mg/dl) were considered as diabetic. Following the diagnosis of DM, age matched healthy control and STZ-induced diabetic rats were divided randomly into four groups each containing six rats. Glucose level was estimated on weekly basis during the experiment.
(§2) Experimental design and drug treatment: Six weeks after the diabetic induction age matched healthy control and STZ-induced diabetic rats were divided randomly into four groups each containing six rats: naïve rats, vehicle (0.5% methylcellulose) treated DM group, 70 mg/kg (in 0.5% methylcellulose) Compound 5-treated DM group, 140 mg/kg (in 0.5% methylcellulose) Compound 5-treated DM group.
Behavioral testing: Tactile allodynia. […] The paw withdrawal thresholds were determined. […] The psychophysical 50% threshold was then calculated.
Data analysis: The results are presented as mean±SEM. In chronic pain experiment, four rats were excluded from the statistical analysis because the paw withdrawal threshold was >8 g (criterion taken from the study. Paw withdrawal threshold data were subjected to analysis of variance (ANOVA, General Linear Model procedure) with Dunnett's post hoc test was applied for between-group pair wise comparisons. Effects of Compound 5 on immunohistochemistry parameters were analyzed by one-way ANOVA (factors: Compound 5 treatment) followed by the Dunnett's test. Data were analyzed using SAS-STAT (SAS v.9.4, SAS Institute Inc., Cary, NC, USA). Data were considered significant at P<0.05.

In a further data set the test system is caspase-3. As to the kind of experiment: Caspase-3 immunohistochemistry (optical density) in spinal cord and sciatic nerve of STZ diabetic rats (Example 18). The class given is in vivo, Wistar rats. As to the method:
Sections from the biopsy specimens (brain and spinal tissue) were formalin-fixed and paraffin-embedded. For IHC examination, slides from the spinal cord and sciatic nervous were evaluated for caspase-3 (cas-3). Serial 3-5-μm thick sections were cut from paraffin embedded tissue blocks. For subsequent IHC staining glass slices were exposed to hot unmasking fluidized citrate buffer pH 6.0 for 15-18 min. After cooling, the glass with the slice was transferred into phosphate-buffered saline (PBS) pH 7.4. The sections were deparaffinized and then rehydrated in alcohol to tris-buffered saline. Endogenous peroxidase activity was blocked using 3% hydrogen peroxide followed by a protein block with 5% goat serum.
Affinity purified monoclonal IgG1, Caspase-3 p11 antibodies (sc-271759; Santa Cruz BioTechnology Inc., Dallas, TX, USA) were used as the primary antibody and applied at a 1:50 dilution 100 μl/glass for 30 min at room temperature. […]
Immunohistochemistry: Sections from the biopsy specimens were formalin-fixed and paraffin-embedded. For immunohistochemistry (IHC) examination, slides from the spinal cord and sciatic nervous were evaluated for caspase-3. […] (4 per group) and three sections from each animal were used for quantitative immunohistochemistry (12 measuring per each group). […]

For data set [3], the system named is STZ-induced diabetic rats. As to the kind of experiment: STZ-induced diabetic rat model, blood glucose concentration and HbA1c (Example 18). The class given is in vivo, Wistar rats. The protocol: as §1, §2
Data set [4] in a line: In-vivo oral rat pharmacokinetics (Example 15). The following applies: male Sprague-Dawley rats, dose level 10 mg/kg, 0.5% MC, plasma, mean. The protocol:
Understanding the pharmacokinetics in species typically employed in preclinical animal testing is an essential component of drug discovery. […] Procedure: Six (6) male Sprague-Dawley rats were used. Fasting was conducted at least 16 hours prior to dose administration. Food was returned at approximately 4 hours post dose. The animals were placed into 2 groups of 3 animals per group. The oral (PO) formulation for Groups 1 & 2 were prepared on the day of dosing at a target concentration of 0.5 mg/mL in 0.5% Methylcellulose (400 cps) to produce a white, homogeneous suspension. Dosing was performed as outlined in Table 1:
Whole blood samples (0.250 mL; K2EDTA anticoagulant) were collected from each animal through a jugular vein catheter. Whole blood samples were collected from all animals pre-dose, and at 0.25, 0.5, 1, 2, 4, 8, 16, and 24 hours after dose administration. All blood samples were immediately placed on ice until processing. Whole blood samples were centrifuged at 2200×g for 10 minutes in a refrigerated centrifuge (5±3° C.) to isolate plasma. The plasma samples were transferred to individual polypropylene vials and immediately placed on dry ice before storage at nominally −20±5° C. The plasma samples sometime later were then thawed and extracted and analyzed by high pressure liquid chromatography (HPLC) coupled to Mass Spectrometry (MS) (Table 2). Pharmacokinetic parameters (Table 3) were estimated using WinNonlin® pharmacokinetic software (Version No. 5.2.1) using a non-compartmental approach consistent with the PO route of administration.

As to `Cc1ccc(C#Cc2ccc(S(=O)(=O)N[C@H](Cc3c[nH]c4ccccc34)C(=O)O)s2)cc1` [Compound 5, (R)-3-(1H-Indol-3-yl)-2-(5-p-tolylethynyl-thiophene-2-sulfonylamino)-propionic acid], the dissociation constant entry in the data set “Dissociation constant” is “around 3.4”. In addition, in data set [1], the “solubility in DMSO, acetone and methanol” value is “soluble”; the solubility in water entry is reported as “poorly soluble”. The “tactile allodynia (paw withdrawal threshold), post hoc analysis” value in data set [2] (70 mg/kg, 14 days treatment, p<0.05 vs. vehicle) is recorded as “confirmed the effect”. Moreover, the “tactile allodynia (paw withdrawal threshold)” value in data set [2] (140 mg/kg, 14 days treatment) is on record as “tendency to the analgesic effect”. In addition, in data set [2] (after 14 days of treatment), the “threshold of the nociceptive response (tactile allodynia)” value is “significantly decreased”. The “expression of caspase-3 in sciatic nerve” value in the data set on caspase-3 (both doses (70 and 140 mg/kg), vs. vehicle-treated DM group) is on record as “significant reduction”. Further, the “caspase-3 in spinal cord” value in the data set with caspase-3 (vs. vehicle group) is recorded as “statistically significant change”. Further, the “glycosylated hemoglobin (HbA1c) level” value in data set [3] (STZ diabetic rats treated during 2 weeks, vs. untreated DM rats) is on record as “not significantly changed”. Also, in data set [3] (STZ diabetic rats, 70 or 140 mg/kg), the blood glucose concentration result is “no significant effects”. Also, in data set [4], the area under the curve AUC(0-inf) is 5150 ng·h/mL, the AUC(0-t) was determined as 5120 ng·h/mL, the Cmax was determined as 1580 ng/mL and the half-life is 1.28 h.

`[2H]c1[nH]c2c([2H])c([2H])c([2H])c([2H])c2c1C[C@@H](NS(=O)(=O)c1ccc(C#Cc2ccc(C)cc2)s1)C(=O)O` [Compound 82]: the dissociation constant entry in the data set “Dissociation constant” was “around 3.4”. In data set [1], the “solubility in DMSO, acetone and methanol” value is “soluble”; the solubility in water result is “poorly soluble”.
